Measurements published in patent US9707234B2, “Spirocyclic hetercycle compounds useful as HIV integrase inhibitors” (MERCK SHARP & DOHME CORP., priority 2013, dated 2017).
Read-outs that look alike come from different tables or passages of the source.

Tested on: HIV-1 (H9IIIB or NL4-3 virus) replication in MT4-GFP cells
Assay: microbe, parasite or virus in culture
Type: cell-based
Details: inhibition of reproductive ratio R0, 48-72 h post-infection
[1] = Human immunodeficiency virus 1, NL43, MT4-GFP cells infected with HIV-1, 10% normal human serum, read-out: ViKinG IP (nM) with 10% NHS
[2] = Human immunodeficiency virus 1, NL43, MT4-GFP cells infected with HIV-1, 100% normal human serum, read-out: ViKinG IP (nM) with 100% NHS
[3] = Human immunodeficiency virus 1, NL43, MT4-GFP cells infected with HIV-1, serum free conditions (0% NHS), read-out: ViKinG IP (nM) with 0% NHS
[4] = MT4-GFP cells infected with HIV-1, 100% normal human serum, read-out: ViKinG IP (nM) with 100% NHS
[5] = MT4-GFP cells infected with HIV-1, serum free conditions (0% NHS), read-out: ViKinG IP (nM) with 0% NHS

Structure (SMILES) | IC50 [1] | IC50 [2] | IC50 [3] | IC50 [4] | IC50 [5] | IC50 (MT4-GFP cells infected with HIV-1, 10% normal human serum, read-out: ViKinG IP (nM) with 10% NHS)
CCN1C(=O)c2c(O)c(=O)c(-c3nnc(Cc4ccc(F)cc4)s3)cn2N(C)C12CCNCC2 [Compound 33] | 49 nM | 89 nM |  |  |  | 
CN1C(=O)c2c(O)c(=O)c(-c3nnc(Cc4ccc(F)cc4F)s3)cn2N(C)C12CCCNCC2 (stereo not shown) [Compound 34] | 34 nM |  | 9.7 nM |  |  | 
CCN1C(=O)c2c(O)c(=O)c(-c3nnc(Cc4ccc(F)cc4F)s3)cn2N(C)C12CCCOC2 (stereo not shown) [Compound 37] |  | 456 nM | 5.3 nM |  |  | 
CN1C(=O)c2c(O)c(=O)c(-c3nnc(Cc4ccc(F)cc4)s3)cn2N(C)C12CCOC2 (stereo not shown) [Compound 38] |  | 132 nM | 3.8 nM |  |  | 
CN1C(=O)c2c(O)c(=O)c(C(=O)NCc3ccc(F)cc3F)cn2CC12CCOCC2 [Compound 39] |  | 49 nM | 4.2 nM |  |  | 
CCN1C(=O)c2c(O)c(=O)c(C(=O)NCc3ccc(F)cc3F)cn2CC12CCOCC2 [Compound 40] |  | 236 nM | 2.8 nM |  |  | 
CCCN1C(=O)c2c(O)c(=O)c(C(=O)NCc3ccc(F)cc3F)cn2CC12CCOCC2 [Compound 41] |  | 7800 nM | 11.2 nM |  |  | 
COCCN1C(=O)c2c(O)c(=O)c(C(=O)NCc3ccc(F)cc3F)cn2CC12CCOCC2 [Compound 42] |  | 234 nM | 2.4 nM |  |  | 
COCCCN1C(=O)c2c(O)c(=O)c(C(=O)NCc3ccc(F)cc3F)cn2CC12CCOCC2 [Compound 43] |  | 39 nM | 3 nM |  |  | 
CCOCCN1C(=O)c2c(O)c(=O)c(C(=O)NCc3ccc(F)cc3F)cn2CC12CCOCC2 [Compound 44] |  | 57 nM | 5.8 nM |  |  | 
CCCCCN1C(=O)c2c(O)c(=O)c(C(=O)NCc3ccc(F)cc3F)cn2CC12CCOCC2 [Compound 45] |  | 236 nM | 6.4 nM |  |  | 
O=C(NCc1ccc(F)cc1F)c1cn2c(c(O)c1=O)C(=O)N(CCCC(F)(F)F)C1(CCOCC1)C2 [Compound 46] |  | 110 nM | 3.2 nM |  |  | 
O=C(NCc1ccc(F)cc1F)c1cn2c(c(O)c1=O)C(=O)N(CCCCC(F)(F)F)C1(CCOCC1)C2 [Compound 47] |  | 71 nM | 6.6 nM |  |  | 
COCc1c(C(=O)NCc2ccc(F)cc2F)c(=O)c(O)c2n1CC1(CCOC1)N(C)C2=O (stereo not shown) [Compound 48] |  | 194 nM | 124 nM |  |  | 
CN1C(=O)c2c(O)c(=O)c(C(=O)NCc3ccc(F)c(Cl)c3F)cn2CC12CCOC2 (stereo not shown) [Compound 55] |  | 30 nM | 0.6 nM |  |  | 
CN1C(=O)c2c(O)c(=O)c(C(=O)NCc3ccc(F)cc3F)cn2CC12COC2 [Compound 68] |  | 134 nM | 7.6 nM |  |  | 
CCN1C(=O)c2c(O)c(=O)c(C(=O)NCc3ccc(F)cc3F)cn2CC12COC2 [Compound 69] |  | 452 nM | 3.5 nM |  |  | 
COCCN1C(=O)c2c(O)c(=O)c(C(=O)NCc3ccc(F)cc3F)cn2CC12COC2 [Compound 70] |  | 91 nM | 2.5 nM |  |  | 
CCN1C(=O)c2c(O)c(=O)c(C(=O)NCc3ccc(F)cc3F)cn2CC12CCCOC2 (stereo not shown) [Compound 81] |  |  | 4.3 nM | 323 nM |  | 
CCN1C(=O)c2c(O)c(=O)c(C(=O)NCc3ccc(F)cc3F)cn2CC12CCCOC2 (stereo not shown) [Compound 82] |  |  |  | 680 nM | 3.1 nM | 
COCCN1C(=O)c2c(O)c(=O)c(C(=O)NCc3ccc(F)cc3F)cn2CC12CCNCC2 [Compound 87] |  | 98 nM | 16 nM |  |  | 
CN1C(=O)c2c(O)c(=O)c(C(=O)NCc3ccc(F)cc3F)cn2CC12CCNCC2 [Compound 88] |  | 97 nM | 10.3 nM |  |  | 
COCCCN1C(=O)c2c(O)c(=O)c(C(=O)NCc3ccc(F)cc3F)cn2CC12CCNCC2 [Compound 89] |  | 87 nM | 16.1 nM |  |  | 

Structure (SMILES) | IC50 [1] | IC50 [2] | IC50 [3] | IC50 [4] | IC50 [5] | IC50 (MT4-GFP cells infected with HIV-1, 10% normal human serum, read-out: ViKinG IP (nM) with 10% NHS)
CN1C(=O)c2c(O)c(=O)c(-c3cnn(Cc4ccc(F)cc4F)c3)cn2CC12CCOC2 (stereo not shown) [Compound 90] |  | 123 nM | 34.1 nM |  |  | 
CCOC(=O)N1CCC2(CC1)N(CC)C(=O)c1c(O)c(=O)c(-c3cnn(Cc4ccc(F)cc4F)c3)c(CO)n1N2C [Compound 92] |  | 3650 nM | 159 nM |  |  | 
CN1C(=O)c2c(O)c(=O)c(-c3nnc(Cc4ccc(F)cc4F)s3)cn2CC12CCNCC2 [Compound 93] | 114 nM |  | 73.9 nM |  |  | 
CCOC(=O)N1CCC2(CC1)Cn1cc(-c3nnc(Cc4ccc(F)cc4F)s3)c(=O)c(O)c1C(=O)N2C [Compound 94] |  | 116 nM | 10.6 nM |  |  | 
CCOC(=O)N1CCC2(CC1)Cn1cc(-c3nnc(Cc4ccc(F)cc4F)s3)c(=O)c(O)c1C(=O)N2CC [Compound 95] |  | 104 nM | 11.6 nM |  |  | 
CCOC(=O)N1CCC2(CC1)Cn1cc(-c3nnc(Cc4ccc(F)cc4F)s3)c(=O)c(O)c1C(=O)N2 [Compound 96] |  | 2240 nM | 69.3 nM |  |  | 
O=C1c2c(O)c(=O)c(-c3nnc(Cc4ccc(F)cc4F)s3)cn2CC2(CCOC2)N1CCO (stereo not shown) [Compound 97] |  | 1050 nM | 41.7 nM |  |  | 
O=C1NC2(CCOCC2)Cn2cc(-c3nnc(Cc4ccc(F)cc4F)s3)c(=O)c(O)c21 [Compound 98] |  | 2030 nM | 91.6 nM |  |  | 
CCN1C(=O)c2c(O)c(=O)c(-c3nnc(Cc4ccc(F)cc4F)s3)cn2CC12CCOCC2 [Compound 99] |  | 870 nM | 40.9 nM |  |  | 
CCC(c1nnc(-c2cn3c(c(O)c2=O)C(=O)N(CC)C2(CCOCC2)C3)s1)c1ccc(F)cc1F (stereo not shown) [Compound 100] |  | 704 nM | 29.2 nM |  |  | 
CN1C(=O)c2c(O)c(=O)c(-c3nnc(Cc4ccc(F)cc4F)s3)cn2CC12CCOC2 (stereo not shown) [Compound 101] |  | 70 nM | 4.6 nM |  |  | 
CC(c1nnc(-c2cn3c(c(O)c2=O)C(=O)N(C)C2(CCOC2)C3)s1)c1ccc(F)cc1F (stereo not shown) [Compound 102] |  | 85 nM | 6.8 nM |  |  | 
CN1C(=O)c2c(O)c(=O)c(C(=O)NCc3ccc(F)cc3F)cn2N(C)C12CCOC2 (stereo not shown) [Compound 103] | 6 nM | 114 nM |  |  | 1.7 nM | 
CN1C(=O)c2c(O)c(=O)c(C(=O)NCc3ccc(F)cc3F)cn2N(C)C12CCOC2 (stereo not shown) [Compound 104] |  |  |  | 87 nM | 0.8 nM | 4 nM
COCCCN1C(=O)c2c(O)c(=O)c(C(=O)NCc3ccc(F)cc3F)cn2N(C)C12CCOCC2 [Compound 141] |  | 71 nM | 2.3 nM |  |  | 
CCOCCN1C(=O)c2c(O)c(=O)c(C(=O)NCc3ccc(F)cc3F)cn2N(C)C12CCOCC2 [Compound 142] | 13 nM | 171 nM | 1.3 nM |  |  | 
CN1C(=O)c2c(O)c(=O)c(C(=O)NCc3ccc(F)cc3F)cn2N(C)C12COC2 [Compound 143] | 7 nM | 78 nM | 1.4 nM |  |  | 
CCN1C(=O)c2c(O)c(=O)c(C(=O)NCc3ccc(F)cc3F)cn2N(C)C12COC2 [Compound 144] | 60 nM | 591 nM | 1.5 nM |  |  | 
COCCCN1C(=O)c2c(O)c(=O)c(C(=O)NCc3ccc(F)cc3F)cn2N(C)C12COC2 [Compound 145] |  | 174 nM | 1.4 nM |  |  | 
CCOCCN1C(=O)c2c(O)c(=O)c(C(=O)NCc3ccc(F)cc3F)cn2N(C)C12COC2 [Compound 146] |  | 485 nM | 10.9 nM |  |  | 
CN1C(=O)c2c(O)c(=O)c(C(=O)NCc3ccc(F)cc3F)cn2N(CCO)C12CCOC2 (stereo not shown) [Compound 147] |  |  | 1.6 nM | 74 nM |  | 
CN1C(=O)c2c(O)c(=O)c(C(=O)NCc3ccc(F)cc3F)cn2N(CCO)C12CCOC2 (stereo not shown) [Compound 148] |  |  |  | 33 nM | 1.2 nM | 
CCN1C(=O)c2c(O)c(=O)c(C(=O)NCc3ccc(F)cc3F)cn2N(C)C12CCNCC2 [Compound 173] |  | 52 nM | 3.2 nM |  |  | 
